In PubChem BioAssay (NCI):
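The compound was tested at five concentrations on cells cultured in 96-well plates, with a 48-hour exposure period. GI50 = concentration required for 50% inhibition of growth. The concentration for full growth arrest is given as TGI.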

Columns and labels:
Assay in all cases: NCI tumour cell line growth inhibition, 48 h
HCT-116 colon = system: HCT-116 colon
UACC-257 melanoma = system: UACC-257 melanoma
MCF7 breast = system: MCF7 breast
MDA-MB-468 breast = system: MDA-MB-468 breast
SF-539 CNS = system: SF-539 CNS
NCI-H226 lung = system: NCI-H226 lung
PC-3 prostate = system: PC-3 prostate
A549 NSCLC = system: A549 NSCLC
OVCAR-4 ovarian = system: OVCAR-4 ovarian
NCI/ADR-RES ovarian = system: NCI/ADR-RES ovarian
SK-MEL-28 melanoma = system: SK-MEL-28 melanoma
HOP-92 NSCLC = system: HOP-92 NSCLC
SK-MEL-5 melanoma = system: SK-MEL-5 melanoma
RXF 393 renal = system: RXF 393 renal
SF-295 CNS = system: SF-295 CNS
NCI-H522 lung = system: NCI-H522 lung
SF-268 CNS = system: SF-268 CNS
HCC-2998 colon = system: HCC-2998 colon
NCI-H460 lung = system: NCI-H460 lung
SN12C renal = system: SN12C renal
ACHN renal = system: ACHN renal
OVCAR-3 ovarian = system: OVCAR-3 ovarian
HL-60(TB) leukemia = system: HL-60(TB) leukemia
IGROV1 ovarian = system: IGROV1 ovarian
HS 578T breast = system: HS 578T breast
K-562 leukemia = system: K-562 leukemia
RPMI-8226 leukemia = system: RPMI-8226 leukemia
U251 CNS = system: U251 CNS
HCT-15 colon = system: HCT-15 colon
UO-31 renal = system: UO-31 renal
M14 melanoma = system: M14 melanoma
KM12 colon = system: KM12 colon
COLO 205 colon = system: COLO 205 colon
MOLT-4 leukemia = system: MOLT-4 leukemia
MDA-MB-231 breast = system: MDA-MB-231 breast
HOP-62 NSCLC = system: HOP-62 NSCLC
NCI-H23 lung = system: NCI-H23 lung
SK-MEL-2 melanoma = system: SK-MEL-2 melanoma
SNB-19 CNS = system: SNB-19 CNS
TK-10 renal = system: TK-10 renal
A498 renal = system: A498 renal
SK-OV-3 ovarian = system: SK-OV-3 ovarian
CAKI-1 renal = system: CAKI-1 renal
OVCAR-5 ovarian = system: OVCAR-5 ovarian
SR leukemia = system: SR leukemia
BT-549 breast = system: BT-549 breast
CCRF-CEM leukemia = system: CCRF-CEM leukemia
DU-145 prostate = system: DU-145 prostate
UACC-62 melanoma = system: UACC-62 melanoma
OVCAR-8 ovarian = system: OVCAR-8 ovarian
EKVX NSCLC = system: EKVX NSCLC
T-47D breast = system: T-47D breast
MALME-3M melanoma = system: MALME-3M melanoma
SNB-75 CNS = system: SNB-75 CNS
MDA-MB-435 = system: MDA-MB-435
LOX IMVI melanoma = system: LOX IMVI melanoma
786-0 renal = system: 786-0 renal

SMILES: COc1ccc(C(=O)Nc2sc3c(c2C#N)CCC(=O)C3)cc1C(F)(F)F
- GI50 (HCT-116 colon): 299 nM
- TGI (HCT-116 colon): 1580 nM
- GI50 (UACC-257 melanoma): 1600 nM
- TGI (UACC-257 melanoma): 3920 nM
- GI50 (MCF7 breast): 408 nM
- TGI (MCF7 breast): 3150 nM
- GI50 (MDA-MB-468 breast): 495 nM
- TGI (MDA-MB-468 breast): 1480 nM
- GI50 (SF-539 CNS): 343 nM
- TGI (SF-539 CNS): 1280 nM
- GI50 (NCI-H226 lung): 2310 nM
- TGI (NCI-H226 lung): 7090 nM
- GI50 (PC-3 prostate): 317 nM
- TGI (PC-3 prostate): 4000 nM
- GI50 (A549 NSCLC): 2780 nM
- TGI (A549 NSCLC): > 100000 nM
- GI50 (OVCAR-4 ovarian): 1110 nM
- TGI (OVCAR-4 ovarian): 2760 nM
- GI50 (NCI/ADR-RES ovarian): 1300 nM
- TGI (NCI/ADR-RES ovarian): 3640 nM
- GI50 (SK-MEL-28 melanoma): 882 nM
- TGI (SK-MEL-28 melanoma): 2330 nM
- GI50 (HOP-92 NSCLC): 708 nM
- TGI (HOP-92 NSCLC): 2530 nM
- GI50 (SK-MEL-5 melanoma): 1350 nM
- TGI (SK-MEL-5 melanoma): 2660 nM
- GI50 (RXF 393 renal): 434 nM
- TGI (RXF 393 renal): 1690 nM
- GI50 (SF-295 CNS): 1790 nM
- TGI (SF-295 CNS): 4780 nM
- GI50 (NCI-H522 lung): 225 nM
- TGI (NCI-H522 lung): 753 nM
- GI50 (SF-268 CNS): 2030 nM
- TGI (SF-268 CNS): 6600 nM
- GI50 (HCC-2998 colon): 1450 nM
- TGI (HCC-2998 colon): 3200 nM
- GI50 (NCI-H460 lung): 2110 nM
- TGI (NCI-H460 lung): 6730 nM
- GI50 (SN12C renal): 966 nM
- TGI (SN12C renal): 6190 nM
- GI50 (ACHN renal): 375 nM
- TGI (ACHN renal): 1260 nM
- GI50 (OVCAR-3 ovarian): 845 nM
- TGI (OVCAR-3 ovarian): 2440 nM
- GI50 (HL-60(TB) leukemia): 339 nM
- TGI (HL-60(TB) leukemia): 5780 nM
- GI50 (IGROV1 ovarian): 1290 nM
- TGI (IGROV1 ovarian): 2970 nM
- GI50 (HS 578T breast): 862 nM
- TGI (HS 578T breast): 3680 nM
- GI50 (K-562 leukemia): 294 nM
- TGI (K-562 leukemia): > 100000 nM
- GI50 (RPMI-8226 leukemia): 145 nM
- GI50 (U251 CNS): 723 nM
- TGI (U251 CNS): 2530 nM
- GI50 (HCT-15 colon): 385 nM
- TGI (HCT-15 colon): 1490 nM
- GI50 (UO-31 renal): 422 nM
- TGI (UO-31 renal): 1620 nM
- GI50 (M14 melanoma): 499 nM
- TGI (M14 melanoma): 1920 nM
- GI50 (KM12 colon): 584 nM
- TGI (KM12 colon): 2210 nM
- GI50 (COLO 205 colon): 582 nM
- TGI (COLO 205 colon): 1620 nM
- GI50 (MOLT-4 leukemia): 322 nM
- TGI (MOLT-4 leukemia): > 19700 nM
- GI50 (MDA-MB-231 breast): 1140 nM
- TGI (MDA-MB-231 breast): 2600 nM
- GI50 (HOP-62 NSCLC): 2650 nM
- TGI (HOP-62 NSCLC): 8880 nM
- GI50 (NCI-H23 lung): 537 nM
- TGI (NCI-H23 lung): 2710 nM
- GI50 (SK-MEL-2 melanoma): 1670 nM
- TGI (SK-MEL-2 melanoma): 4060 nM
- GI50 (SNB-19 CNS): 2500 nM
- TGI (SNB-19 CNS): 10500 nM
- GI50 (TK-10 renal): 1210 nM
- TGI (TK-10 renal): 7600 nM
- GI50 (A498 renal): 5740 nM
- TGI (A498 renal): 36100 nM
- GI50 (SK-OV-3 ovarian): 2480 nM
- TGI (SK-OV-3 ovarian): 6710 nM
- GI50 (CAKI-1 renal): 491 nM
- TGI (CAKI-1 renal): 1840 nM
- GI50 (OVCAR-5 ovarian): 1960 nM
- TGI (OVCAR-5 ovarian): 4840 nM
- GI50 (SR leukemia): 339 nM
- TGI (SR leukemia): > 100000 nM
- GI50 (BT-549 breast): 564 nM
- TGI (BT-549 breast): 1920 nM
- GI50 (CCRF-CEM leukemia): 270 nM
- TGI (CCRF-CEM leukemia): > 100000 nM
- GI50 (DU-145 prostate): 2910 nM
- TGI (DU-145 prostate): > 30400 nM
- GI50 (UACC-62 melanoma): 826 nM
- TGI (UACC-62 melanoma): 2210 nM
- GI50 (OVCAR-8 ovarian): 1280 nM
- TGI (OVCAR-8 ovarian): 3710 nM
- GI50 (EKVX NSCLC): 2350 nM
- TGI (EKVX NSCLC): 8760 nM
- GI50 (T-47D breast): 352 nM
- TGI (T-47D breast): 2080 nM
- GI50 (MALME-3M melanoma): 370 nM
- TGI (MALME-3M melanoma): 1420 nM
- GI50 (SNB-75 CNS): 1220 nM
- TGI (SNB-75 CNS): 3680 nM
- GI50 (MDA-MB-435): 594 nM
- TGI (MDA-MB-435): 2060 nM
- GI50 (LOX IMVI melanoma): 416 nM
- TGI (LOX IMVI melanoma): 1650 nM
- GI50 (786-0 renal): 1820 nM
- TGI (786-0 renal): 7270 nM
